Results from patent US20160199393A1, “METHODS OF TREATING BRAIN ISCHEMIA OR HYPOXIA” (China Medical University, priority 2015, published 2016).

Tests used:
[1] = test system: NMDAR; details: for hyperfunction of NMDAR (binding radioactivity of 18F-FSAG): WT cortical cells, OGDR, 24 h after reperfusion, 10 μM (SAS 500 μM)
[2] = biological target: T1, NMDAR (Mus musculus, UniProt P35438); type: in vivo; details: WT and xCT−/− mice with CIR, 12 h after reperfusion, compared to vehicle
T1 construct: from tissue; host or cells: cerebral hemispheres of WT (C57BL/6J) and xCT-/- mice after CIR, in vivo/ex vivo
Procedure: Animals received 29.6 MBq/kg of ^18F-FSAG in 100 μl of PBS via lateral tail vein injection, and then were euthanized by CO2/O2 asphyxiation at 30 min after injection. After sacrifice, selected tissues of interest were then removed and weighed, and the radioactivity was measured using a γ-counter. The percentage injected dose per gram (% ID/g) was then calculated.
To determine in vivo activation of NMDAR, mice were injected with ^18F-FSAG at 12 h after reperfusion for ex vivo biodistribution studies and positron emission tomography (PET) imaging studies.

[3] = test system: xCT; assay: xCT mRNA and protein levels in homogenised ischemic brain tissue of rats with CIR; type: in vivo, rat; details: pretreatment 150 mg/kg, 12 h after reperfusion
Procedure: Eight to ten-week-old male adult male Sprague-Dawley rats, C57BL/6J mice and xCT^−/− mice were anesthetized with 1.5% isoflurane in oxygen, allowed breathing spontaneously, and body temperature was maintained at 37° C. with a heat lamp during surgery for right middle cerebral artery ligation and bilateral common carotid artery clamping as previously described (Chen S T, Hsu C Y, Hogan E L, Maricq H, Balentine J D. A model of focal ischemic stroke in the rat: reproducible extensive cortical infarction. Stroke; a journal of cerebral circulation. 1986; 17(4):738-43, which is incorporated here by reference). Animals were subjected to transient cerebral ischemia for 90 min in rats and 2 h in mice.
Q-PCR analysis was performed as described previously in Hsieh (Hsieh C H, Kuo J W, Lee Y J, Chang C W, Gelovani Liu R S. Construction of mutant TKGFP for real-time imaging of temporal dynamics of HIF-1 signal transduction activity mediated by hypoxia and reoxygenation in tumors in living mice. J Nucl Med. 2009; 50(12):2049-57, which is incorporated here by reference). […] The cDNA was then used for real time PCR quantification of mRNAs using the gene specific forward and reverse primers. […]
To test this hypothesis, the mRNA and protein levels of xCT in ischemic brains with or without 2-methoxyestradiol (2ME2), an inhibitor of HIF-1, at 12 h after CIR were first determined. […]

[4] = test system: SLC7A11 (xCT) mRNA; assay: SLC7A11 mRNA level (Q-PCR) in primary cortical cells exposed to OGDR; type: cell-based, mouse; details: pretreatment with YC-1 5 μM
[5] = test system: WT cortical cells; assay: Lactate dehydrogenase (LDH) level in WT cortical cells after OGD/OGDR; type: cell-based, mouse; details: OGDR, 24 h after reperfusion, 10 μM (SAS 500 μM)
Procedure: (§1) Primary cortical cells were prepared from cerebral cortices of wild-type C57BL/6J or homozygote xCT^−/− mouse embryos in embryonic day 17 as previously described with modification (Goldberg M P, Choi D W. Combined oxygen and glucose deprivation in cortical cell culture: calcium-dependent and calcium-independent mechanisms of neuronal injury. The Journal of neuroscience: the official journal of the Society for Neuroscience, 1993; 13(8):3510-24, which is incorporated here by reference).
The LDH assay was carried out at 24 hours after reperfusion. *P<0.01 compared to drugs-untreated cells (Un), one-way ANOVA. Error bars denote the standard deviation among triplicate experiments.

[6] = test system: neurons; assay: Annexin V flow cytometric apoptosis assay after OGDR, neurons; type: cell-based, mouse; details: WT cortical cells, 24 h after reperfusion, 10 μM (SAS 500 μM)
Procedure: (§2) Annexin V staining was performed to determine cell apoptosis using the Annexin V-FITC Apoptosis Detection Kit (Sigma-Aldrich) for 10 min at room temperature according to the manufacturers instructions, and then flow cytometric analysis was performed.
(§3) The three-color staining flow cytometric assay using allophycocyanin-microtubule-associated protein 2 (MAP2) for neuron staining, phycoerythrin (PE)-GFAP for astrocyte staining and FITC-annexin V for apoptotic cell staining was performed to count the numbers of neurons, astrocytes, and apoptotic cells. FIGS. 21A and […] show the results of apoptosis in wild type (WT) and xCT^−/− cortical cells treated with OGDR at 24 h after reperfusion. *P<0.01 compared to WT without OGDR, Student's t-test. ^#P<0.01 compared to WT with OGDR, Student's t-test. From FIGS. 21A and 21B it was observed that that smaller numbers of apoptotic cells were present in xCT^−/− neurons and astrocytes after OGDR treatment.

[7] = biological target: T2, system xc− (Mus musculus, UniProt Q9WTR6); assay: Extracellular glutamate content in WT cortical cells exposed to OGDR; type: cell-based; details: 24 h after reperfusion, 10 μM (SAS 500 μM)
T2 construct: endogenous in cells; host or cells: primary cortical cells from E17 wild-type C57BL/6J mouse embryos, exposed to OGDR
T2 sequence (Q9WTR6 1-502): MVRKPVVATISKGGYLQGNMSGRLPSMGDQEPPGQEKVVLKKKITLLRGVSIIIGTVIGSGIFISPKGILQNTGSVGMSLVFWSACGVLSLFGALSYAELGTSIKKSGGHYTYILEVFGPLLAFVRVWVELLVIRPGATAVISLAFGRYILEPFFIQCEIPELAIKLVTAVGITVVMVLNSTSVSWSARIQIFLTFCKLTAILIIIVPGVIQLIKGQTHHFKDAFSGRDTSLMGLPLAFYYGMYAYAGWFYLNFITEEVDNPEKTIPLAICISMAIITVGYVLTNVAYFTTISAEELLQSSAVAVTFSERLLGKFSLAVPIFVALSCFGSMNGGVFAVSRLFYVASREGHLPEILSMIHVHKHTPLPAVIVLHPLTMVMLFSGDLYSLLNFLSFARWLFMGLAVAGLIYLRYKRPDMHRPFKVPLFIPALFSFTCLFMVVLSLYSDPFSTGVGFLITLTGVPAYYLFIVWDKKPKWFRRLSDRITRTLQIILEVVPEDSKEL
T2 sequence (P10852 1-526 partner): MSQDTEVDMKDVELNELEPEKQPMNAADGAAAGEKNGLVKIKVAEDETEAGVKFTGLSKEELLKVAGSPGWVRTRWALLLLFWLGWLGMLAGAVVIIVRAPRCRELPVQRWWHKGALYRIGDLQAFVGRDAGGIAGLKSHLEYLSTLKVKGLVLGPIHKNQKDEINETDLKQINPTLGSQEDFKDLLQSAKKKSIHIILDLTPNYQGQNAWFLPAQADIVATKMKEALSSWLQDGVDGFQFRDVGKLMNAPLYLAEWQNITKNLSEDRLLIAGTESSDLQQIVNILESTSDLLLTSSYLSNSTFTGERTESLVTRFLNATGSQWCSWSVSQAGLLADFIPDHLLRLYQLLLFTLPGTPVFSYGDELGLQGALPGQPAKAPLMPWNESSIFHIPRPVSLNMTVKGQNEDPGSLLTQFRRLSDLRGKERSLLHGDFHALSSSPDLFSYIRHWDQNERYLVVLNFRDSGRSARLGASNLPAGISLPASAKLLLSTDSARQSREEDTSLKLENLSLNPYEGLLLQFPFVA
Procedure: as §1

[8] = test system: astrocytes; assay: Annexin V flow cytometric apoptosis assay after OGDR, astrocytes; type: cell-based, mouse; details: WT cortical cells, 24 h after reperfusion, 10 μM (SAS 500 μM)
Procedure: as §2, §3

[9] = test system: mouse xCT promoter; assay: Mouse xCT promoter luciferase reporter assay in neurons and astrocytes; type: cell-based; details: 24 h incubation, DFO 100 μM, CoCl2 50 μM
From the text: The multiple cloning sites (MCS) of pTA-Luc vector (Clontech) was inserted with the cDNA fragment bearing −2000 to +1 bp mouse or human xCT promoter to drive the expression of firefly luciferase gene as pTA-mxCTp-Luc or pTA-hxCTp-Luc. The mutant of hypoxia response element on mouse or human xCT promoter was generated in the pTA-mxCTp-Luc or pTA-hxCTp-Luc as template by Quick Change Site-directed Mutagenesis Kit (Stratagene).
Cells were cotransfected with xCT promoter-driven reporter constructs with or without HRE mutation and Renilla reporter plasmids. At 24 h after transfection, the luciferase activity was examined by a dual luciferase reporter assay system (Promega) according to the manufacturers instructions, and firefly luciferase activity was normalized to the control renilla activity included in the kit. Luciferase activities are expressed as fold-increase over the luciferase activities in un-stimulated conditions.
To test whether the xCT promoter would respond to HIF activation, the mouse xCT 2000-bp promoter was isolated and fused to firefly luciferase coding sequences for use in transient transfection assays with neurons and astrocytes. Normoxic neurons and astrocytes were treated with OGDR or incubated with desferrioxamine (DFO; 100 μM) or cobalt chloride (CoCl2; 50 μM) for 24 h. The DFO and CoCl2 mimics hypoxia by inducing transcription from HIF-1-dependent genes.

[10] = biological target: T3, system xc− (Homo sapiens, UniProt Q9UPY5); details: Dixon et al., eLife 2014; cited from earlier work
T3 sequence (Q9UPY5 1-501): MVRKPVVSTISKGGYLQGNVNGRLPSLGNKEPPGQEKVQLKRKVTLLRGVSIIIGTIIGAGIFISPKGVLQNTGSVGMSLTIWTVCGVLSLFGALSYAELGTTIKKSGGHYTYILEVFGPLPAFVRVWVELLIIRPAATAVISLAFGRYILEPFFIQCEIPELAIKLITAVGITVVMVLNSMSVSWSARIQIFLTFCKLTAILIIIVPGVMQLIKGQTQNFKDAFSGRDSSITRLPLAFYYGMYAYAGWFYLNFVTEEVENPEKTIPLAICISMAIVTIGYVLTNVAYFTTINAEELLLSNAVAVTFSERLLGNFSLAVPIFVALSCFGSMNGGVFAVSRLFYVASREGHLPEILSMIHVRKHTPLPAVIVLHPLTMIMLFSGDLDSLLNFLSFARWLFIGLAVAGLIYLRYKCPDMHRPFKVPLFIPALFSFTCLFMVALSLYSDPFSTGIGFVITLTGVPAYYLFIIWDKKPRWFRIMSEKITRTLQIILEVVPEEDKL
T3 sequence (P08195 1-529 partner): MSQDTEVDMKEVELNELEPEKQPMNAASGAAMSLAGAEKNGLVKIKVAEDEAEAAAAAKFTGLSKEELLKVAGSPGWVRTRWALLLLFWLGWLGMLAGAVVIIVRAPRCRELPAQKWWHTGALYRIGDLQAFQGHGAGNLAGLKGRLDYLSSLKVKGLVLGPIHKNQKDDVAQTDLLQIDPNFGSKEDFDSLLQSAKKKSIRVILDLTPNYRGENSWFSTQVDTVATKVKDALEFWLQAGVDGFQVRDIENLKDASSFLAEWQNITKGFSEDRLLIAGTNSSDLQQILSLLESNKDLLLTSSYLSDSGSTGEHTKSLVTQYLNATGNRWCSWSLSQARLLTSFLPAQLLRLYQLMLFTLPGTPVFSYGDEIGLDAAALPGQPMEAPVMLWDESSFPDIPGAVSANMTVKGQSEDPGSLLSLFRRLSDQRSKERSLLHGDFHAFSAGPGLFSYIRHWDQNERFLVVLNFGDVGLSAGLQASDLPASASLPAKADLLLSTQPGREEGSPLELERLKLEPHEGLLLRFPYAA

SMILES: C[C@]12N[C@H](Cc3ccccc31)c1ccccc12 [MK801]
- binding of 18F-FSAG ([1]; cortical cells, pretreatment 10 μM): blocked
- 18F-FSAG accumulation in ipsilateral and contralateral hemispheres [2]: significant reduction

SMILES: COc1cc2c(cc1O)CC[C@@H]1[C@@H]2CC[C@]2(C)[C@@H](O)CC[C@@H]12 [2ME2, 2-methoxyestradiol]
- xCT mRNA expression level [3]: significantly inhibited
- xCT protein expression level [3]: significantly inhibited

SMILES: OCc1ccc(-c2nn(Cc3ccccc3)c3ccccc23)o1 [YC-1]
- OGDR-increased SLC7A11 mRNA expression [4]: inhibited

SMILES: CCOc1ccccc1-n1c(C(C)N2CCN(C(=O)COc3ccc(Cl)cc3)CC2)nc2ccccc2c1=O (stereo not drawn) [erastin]
- hyperfunction of NMDAR (binding radioactivity of 18F-FSAG) [1]: inhibited
- LDH levels [5]: inhibited
- apoptosis in neurons [6]: inhibited
- OGDR-induced glutamate release (extracellular glutamate content) [7]: inhibited
- apoptosis in astrocytes [8]: inhibited

SMILES: CC(=O)N(O)CCCCCNC(=O)CCC(=O)N(O)CCCCCNC(=O)CCC(=O)N(O)CCCCCN [DFO, desferrioxamine]
- transcriptional activation of xCT (reporter activity of mouse xCT promoter) [9]: increased

SMILES: CNC(=O)c1cc(Oc2ccc(NC(=O)Nc3ccc(Cl)c(C(F)(F)F)c3)c(F)c2)ccn1 [regorafenib]
- hyperfunction of NMDAR (binding radioactivity of 18F-FSAG) [1]: inhibited
- LDH levels [5]: inhibited
- apoptosis in neurons [6]: inhibited
- OGDR-induced glutamate release (extracellular glutamate content) [7]: inhibited
- apoptosis in astrocytes [8]: inhibited

SMILES: [Cl][Co][Cl] [CoCl2, cobalt chloride]
- transcriptional activation of xCT (reporter activity of mouse xCT promoter) [9]: increased

SMILES: Cc1ccc(NC(=O)c2ccc(CN3CCN(C)CC3)cc2)cc1Nc1nccc(-c2cccnc2)n1 [imatinib]
- system xc− inhibition activity [10]: lacking system xc^− inhibition activity
